Experimental data from patent US20250145606A1 (Arcus Biosciences, Inc., priority 2023, published 2025).
Marks after values point to notes of the source that are not given here.

Assays:
[1] = target: c-Kit (Homo sapiens (Human), UniProt P10721); test: Inhibition of c-Kit kinase activity (HTRF KinEASE-TK); format: biochemical; details: biochemical
How it was run: (§1)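 Phosphorylation of biotinylated TK peptide read by HTRF (665/620 nm ratio) after 120 min at rt, following 1 h enzyme–compound preincubation. ATP (2× mix): 20 μM CSF1R, 16 μM c-Kit, 40 μM PDGFRβ, 1 μM PDGFRα; MgCl2 10 mM except c-Kit 5 mM. 22-point 1:2 titration; four-parameter IC50.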

[2] = target: CSF1R (Homo sapiens (Human), UniProt P07333); test: Inhibition of CSF1R kinase activity (HTRF KinEASE-TK); details: biochemical
CSF1R, sequence (P07333 20-972): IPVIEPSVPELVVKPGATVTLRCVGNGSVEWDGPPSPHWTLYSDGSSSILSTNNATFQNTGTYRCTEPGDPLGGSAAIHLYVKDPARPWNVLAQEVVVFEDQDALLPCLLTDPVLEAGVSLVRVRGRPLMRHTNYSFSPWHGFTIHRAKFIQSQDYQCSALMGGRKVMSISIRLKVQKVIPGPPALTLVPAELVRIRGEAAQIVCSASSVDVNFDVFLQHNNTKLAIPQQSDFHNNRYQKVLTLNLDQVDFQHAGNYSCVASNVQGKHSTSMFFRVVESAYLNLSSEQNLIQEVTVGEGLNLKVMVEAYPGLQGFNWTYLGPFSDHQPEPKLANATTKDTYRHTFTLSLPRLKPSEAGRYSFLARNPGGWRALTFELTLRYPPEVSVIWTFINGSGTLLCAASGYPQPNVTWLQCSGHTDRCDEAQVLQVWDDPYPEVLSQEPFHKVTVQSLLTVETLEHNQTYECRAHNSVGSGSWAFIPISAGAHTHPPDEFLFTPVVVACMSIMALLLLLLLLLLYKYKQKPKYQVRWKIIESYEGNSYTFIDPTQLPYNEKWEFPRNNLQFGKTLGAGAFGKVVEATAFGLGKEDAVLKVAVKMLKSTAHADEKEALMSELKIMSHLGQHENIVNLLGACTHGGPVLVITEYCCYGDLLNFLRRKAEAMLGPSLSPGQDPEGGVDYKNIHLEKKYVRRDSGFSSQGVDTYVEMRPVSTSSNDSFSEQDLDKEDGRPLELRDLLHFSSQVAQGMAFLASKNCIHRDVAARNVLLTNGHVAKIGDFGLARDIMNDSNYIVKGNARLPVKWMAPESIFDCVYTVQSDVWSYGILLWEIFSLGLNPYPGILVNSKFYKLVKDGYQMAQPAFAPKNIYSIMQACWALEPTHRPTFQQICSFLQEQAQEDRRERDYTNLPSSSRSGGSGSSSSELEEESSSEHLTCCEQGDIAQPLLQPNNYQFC
How it was run: as §1

[3] = test system: beagle dog hepatocytes; test: Bioactivation assessment in dog hepatocytes; format: in vitro ADME; details: 5 μM, 4 hours
Description: Bioactivation Assessment Procedure
Pooled male Sprague Dawley rat (BioIVT), male beagle dog (BioIVT), male cynomolgus monkey (BioIVT), and a 50-donor pool of cryopreserved human hepatocytes (BioIVT) was thawed in pre-warmed 37° C. InVitroGro™ HT media (BioIVT), centrifuged, and resuspended in the InVitroGro™ HI media (BioIVT). The number of viable cells was determined by the Trypan blue exclusion method. The cells were diluted to a concentration of two million viable cells per milliliter (viability >80%) and seeded into round-bottom 96-well plates. The test articles were dissolved in DMSO and further diluted in 50% CH3CN and InVitroGro™ HI media with final concentrations of 0.05% DMSO and 0.5% CH3CN in the incubation mixture. Incubation was performed at a final concentration of one million cells per milliliter and 5 μM test compounds with continuous shaking at 1100 rpm in a 37° C., 5/95% CO2/air incubator with 100% relative humidity. After 4 hours, the samples were quenched by addition of 3 volumes of CH3CN, vortexed for 15 minutes, and centrifuged at 4200 rpm for 15 minutes at 10° C. (Sorvall Legend XTR centrifuge, Thermo Scientific, Langenselbold, Germany). 80 μL of the resulting supernatant was transferred into a new plate and mixed with 160 μL water followed by liquid chromatography-high resolution mass spectrometry (LC-HRMS) analysis.
Structural assignments of metabolites were determined through mass spectral analysis. The level of bioactivation was estimated based on the relative peak area of bioactivation products to all identified metabolites. The following equation was used: […]
Bioactivation products included glutathione conjugates, imine methides, quinones, diols, and other relevant metabolites.

[4] = target: PDGFRα (Homo sapiens (Human), UniProt P16234); test: Inhibition of PDGFRα kinase activity (HTRF KinEASE-TK); details: biochemical
PDGFRα, sequence (P16234 24-1089): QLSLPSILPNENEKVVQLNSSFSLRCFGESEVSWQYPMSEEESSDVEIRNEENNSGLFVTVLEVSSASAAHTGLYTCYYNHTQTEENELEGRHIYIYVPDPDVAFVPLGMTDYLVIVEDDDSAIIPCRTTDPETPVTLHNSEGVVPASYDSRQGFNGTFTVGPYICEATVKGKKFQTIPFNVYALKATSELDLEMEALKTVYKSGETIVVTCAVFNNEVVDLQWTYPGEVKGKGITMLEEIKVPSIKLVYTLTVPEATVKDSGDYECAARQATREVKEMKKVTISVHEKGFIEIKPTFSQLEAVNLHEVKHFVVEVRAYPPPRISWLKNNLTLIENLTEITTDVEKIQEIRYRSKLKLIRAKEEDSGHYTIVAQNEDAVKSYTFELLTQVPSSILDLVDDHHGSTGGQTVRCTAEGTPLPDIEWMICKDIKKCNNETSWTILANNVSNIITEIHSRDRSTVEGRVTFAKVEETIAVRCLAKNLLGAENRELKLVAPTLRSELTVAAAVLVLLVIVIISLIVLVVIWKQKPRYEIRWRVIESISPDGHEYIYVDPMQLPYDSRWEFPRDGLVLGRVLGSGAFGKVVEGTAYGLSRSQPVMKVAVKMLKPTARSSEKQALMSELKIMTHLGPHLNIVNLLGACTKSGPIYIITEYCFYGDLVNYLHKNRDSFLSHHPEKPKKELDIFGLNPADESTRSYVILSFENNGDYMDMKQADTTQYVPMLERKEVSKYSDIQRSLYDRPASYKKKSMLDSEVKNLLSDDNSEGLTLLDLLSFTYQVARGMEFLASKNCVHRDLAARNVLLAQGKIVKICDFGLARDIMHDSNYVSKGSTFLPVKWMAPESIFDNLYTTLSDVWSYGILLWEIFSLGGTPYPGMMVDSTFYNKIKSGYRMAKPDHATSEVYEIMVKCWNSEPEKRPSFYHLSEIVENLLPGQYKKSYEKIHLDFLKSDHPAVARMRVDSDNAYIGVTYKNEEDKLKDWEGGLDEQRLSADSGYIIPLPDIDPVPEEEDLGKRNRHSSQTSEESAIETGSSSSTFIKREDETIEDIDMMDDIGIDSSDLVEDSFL
How it was run: as §1

[5] = target: FLT3 (Homo sapiens (Human), UniProt P36888); test: Inhibition of FLT3 kinase activity (HTRF KinEASE-TK); format: biochemical; details: biochemical
FLT3, sequence (P36888 27-993): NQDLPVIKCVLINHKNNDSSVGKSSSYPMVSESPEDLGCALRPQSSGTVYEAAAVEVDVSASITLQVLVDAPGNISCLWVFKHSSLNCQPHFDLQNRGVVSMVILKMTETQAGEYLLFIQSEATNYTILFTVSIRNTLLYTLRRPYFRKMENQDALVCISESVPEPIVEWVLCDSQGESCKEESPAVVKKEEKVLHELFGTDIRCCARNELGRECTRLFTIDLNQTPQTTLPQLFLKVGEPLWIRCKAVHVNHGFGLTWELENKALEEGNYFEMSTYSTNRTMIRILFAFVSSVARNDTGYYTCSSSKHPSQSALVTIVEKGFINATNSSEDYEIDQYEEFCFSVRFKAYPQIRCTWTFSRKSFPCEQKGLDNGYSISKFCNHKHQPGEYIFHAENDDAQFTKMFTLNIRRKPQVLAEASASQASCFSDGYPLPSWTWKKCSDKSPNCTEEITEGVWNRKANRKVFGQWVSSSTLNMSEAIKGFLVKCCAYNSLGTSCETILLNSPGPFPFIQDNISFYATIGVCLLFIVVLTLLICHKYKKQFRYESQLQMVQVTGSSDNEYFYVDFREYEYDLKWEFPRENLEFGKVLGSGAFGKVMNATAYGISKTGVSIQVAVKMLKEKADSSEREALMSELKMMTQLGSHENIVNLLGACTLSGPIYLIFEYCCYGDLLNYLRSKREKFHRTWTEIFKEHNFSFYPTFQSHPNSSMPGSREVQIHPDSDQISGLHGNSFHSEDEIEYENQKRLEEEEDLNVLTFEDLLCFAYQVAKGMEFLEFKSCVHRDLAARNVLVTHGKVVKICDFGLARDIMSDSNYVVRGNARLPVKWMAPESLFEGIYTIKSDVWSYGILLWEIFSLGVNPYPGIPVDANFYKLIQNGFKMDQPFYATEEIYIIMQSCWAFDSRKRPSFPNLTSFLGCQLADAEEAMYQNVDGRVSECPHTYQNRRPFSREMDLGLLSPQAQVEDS
How it was run: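 FLT3 tyrosine kinase activity was measured with the HTRF KinEASE-TK kit by following phosphorylation of a biotinylated TK peptide. After the 45 min reaction, 10 μL of detection mix was added: 0.2 μM (2×) Streptavidin-XL665 and 2 μM (2×) TK-Antibody-Cryptate in detection buffer. After 60 min, TR-FRET was read on an Envision as the 665 nm/620 nm emission ratio with 320 nm excitation.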

[6] = target: PDGFRβ (Homo sapiens (Human), UniProt P09619); test: Inhibition of PDGFRβ kinase activity (HTRF KinEASE-TK); details: biochemical
PDGFRβ, sequence (P09619 33-1106): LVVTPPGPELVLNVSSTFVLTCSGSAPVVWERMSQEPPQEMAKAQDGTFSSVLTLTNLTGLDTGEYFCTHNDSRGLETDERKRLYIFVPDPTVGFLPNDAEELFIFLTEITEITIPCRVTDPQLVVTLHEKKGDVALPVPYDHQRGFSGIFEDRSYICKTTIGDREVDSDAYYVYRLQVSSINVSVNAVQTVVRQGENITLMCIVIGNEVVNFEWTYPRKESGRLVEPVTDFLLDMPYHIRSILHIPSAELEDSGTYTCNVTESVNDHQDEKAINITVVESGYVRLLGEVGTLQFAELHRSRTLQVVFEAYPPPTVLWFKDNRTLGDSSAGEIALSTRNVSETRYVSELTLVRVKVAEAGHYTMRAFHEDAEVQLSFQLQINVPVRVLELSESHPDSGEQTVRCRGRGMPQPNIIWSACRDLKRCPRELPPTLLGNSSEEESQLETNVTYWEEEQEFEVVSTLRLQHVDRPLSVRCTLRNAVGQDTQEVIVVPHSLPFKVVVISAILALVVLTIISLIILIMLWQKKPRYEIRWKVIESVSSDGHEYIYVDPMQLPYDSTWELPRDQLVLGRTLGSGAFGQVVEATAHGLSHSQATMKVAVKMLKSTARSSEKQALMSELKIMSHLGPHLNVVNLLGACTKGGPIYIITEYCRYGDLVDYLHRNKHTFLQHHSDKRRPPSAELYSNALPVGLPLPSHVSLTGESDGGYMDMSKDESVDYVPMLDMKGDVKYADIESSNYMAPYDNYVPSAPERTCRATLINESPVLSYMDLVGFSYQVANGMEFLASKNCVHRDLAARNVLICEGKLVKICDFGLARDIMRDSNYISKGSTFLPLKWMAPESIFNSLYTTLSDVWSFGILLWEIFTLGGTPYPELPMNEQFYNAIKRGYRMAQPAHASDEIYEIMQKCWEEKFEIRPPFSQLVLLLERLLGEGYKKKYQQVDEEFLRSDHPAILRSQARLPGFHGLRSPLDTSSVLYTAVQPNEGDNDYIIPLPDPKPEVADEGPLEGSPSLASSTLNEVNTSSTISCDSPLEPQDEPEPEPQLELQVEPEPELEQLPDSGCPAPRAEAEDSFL
How it was run: as §1

c-Kit, sequence (P10721 26-976): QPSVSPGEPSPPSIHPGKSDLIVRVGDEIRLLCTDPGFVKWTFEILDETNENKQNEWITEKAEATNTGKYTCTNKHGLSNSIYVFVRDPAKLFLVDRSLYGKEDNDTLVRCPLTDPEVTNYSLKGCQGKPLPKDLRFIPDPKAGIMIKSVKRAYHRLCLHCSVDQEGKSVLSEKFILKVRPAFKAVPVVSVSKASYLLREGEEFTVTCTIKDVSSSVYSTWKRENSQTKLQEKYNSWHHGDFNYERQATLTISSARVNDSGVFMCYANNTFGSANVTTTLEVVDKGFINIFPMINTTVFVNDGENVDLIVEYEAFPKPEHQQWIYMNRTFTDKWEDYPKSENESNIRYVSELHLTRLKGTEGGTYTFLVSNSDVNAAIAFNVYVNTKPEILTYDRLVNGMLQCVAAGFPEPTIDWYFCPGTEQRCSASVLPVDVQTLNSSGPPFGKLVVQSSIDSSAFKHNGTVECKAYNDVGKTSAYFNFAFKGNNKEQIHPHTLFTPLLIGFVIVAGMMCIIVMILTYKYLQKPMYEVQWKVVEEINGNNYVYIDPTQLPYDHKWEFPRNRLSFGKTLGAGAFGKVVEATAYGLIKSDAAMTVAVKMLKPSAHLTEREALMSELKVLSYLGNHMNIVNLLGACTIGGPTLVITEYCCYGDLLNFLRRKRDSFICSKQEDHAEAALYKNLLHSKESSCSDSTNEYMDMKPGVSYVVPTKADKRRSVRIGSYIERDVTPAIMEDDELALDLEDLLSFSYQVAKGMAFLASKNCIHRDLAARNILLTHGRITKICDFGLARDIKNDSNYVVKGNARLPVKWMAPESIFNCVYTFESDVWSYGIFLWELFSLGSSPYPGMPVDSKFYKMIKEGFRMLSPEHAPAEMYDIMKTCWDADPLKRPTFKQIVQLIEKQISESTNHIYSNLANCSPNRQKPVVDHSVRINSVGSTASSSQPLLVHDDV

SMILES | IC50 [1] [nM] | IC50 [2] [nM] | Percent of total metabolism via bioactivation, Dog hepatocytes [3] | IC50 [4] [nM] | IC50 [5] [nM] | IC50 [6] [nM] | IC50 ([1]; HTRF KinEASE-TK) [nM] | IC50 ([2]; HTRF KinEASE-TK) [nM] | IC50 ([4]; HTRF KinEASE-TK) [nM] | IC50 ([5]; HTRF KinEASE-TK) [nM] | IC50 ([6]; HTRF KinEASE-TK) [nM]
Cc1ncc(C(=O)Nc2cc(C(=O)Nc3ccc(CC(F)(F)F)cn3)c(F)cc2C)s1 [Example 1, N-[4-Fluoro-2-methyl-5-[[5-(2,2,2-trifluoroethyl)pyridin-2-yl]carbamoyl]phenyl]-2-methyl-1,3-thiazole-5-carboxamide] | < 100 | > 1000 | <1%^b | > 1000 | > 1000 | > 1000 |  |  |  |  | 
Cc1ncc(C(=O)Nc2cc(C(=O)Nc3ccc(OC4CC4)cn3)c(F)cc2C)s1 [Example 2, N-[5-[(5-Cyclopropyloxypyridin-2-yl)carbamoyl]-4-fluoro-2-methylphenyl]-2-methyl-1,3-thiazole-5-carboxamide] | < 100 | > 1000 | 3-4%^a | > 1000 | > 1000 | > 1000 |  |  |  |  | 
Cc1ncc(C(=O)Nc2cc(C(=O)Nc3ccc(C4CC4)cn3)c(F)cc2C)s1 [Example 3, N-[5-[(5-Cyclopropylpyridin-2-yl)carbamoyl]-4-fluoro-2-methylphenyl]-2-methyl-1,3-thiazole-5-carboxamide] | < 100 | > 1000 | 2% | > 1000 | > 1000 | > 1000 |  |  |  |  | 
Cc1ncc(C(=O)Nc2cc(C(=O)Nc3cnc(OCC(C)(F)F)cn3)c(F)cc2C)s1 [Example 4, N-[5-[[5-(2,2-Difluoropropoxy)pyrazin-2-yl]carbamoyl]-4-fluoro-2-methylphenyl]-2-methyl-1,3-thiazole-5-carboxamide] | < 100 | > 1000 | <1%^a | > 1000 | > 1000 | > 1000 |  |  |  |  | 
Cc1ncc(C(=O)Nc2cc(C(=O)Nc3ccc(CC4CC4)cn3)c(F)cc2C)s1 [Example 5, N-[5-[[5-(Cyclopropylmethyl)pyridin-2-yl]carbamoyl]-4-fluoro-2-methylphenyl]-2-methyl-1,3-thiazole-5-carboxamide] | < 100 | > 1000 | 4% | > 1000 | > 1000 | > 1000 |  |  |  |  | 
Cc1ncc(C(=O)Nc2cc(C(=O)Nc3ccc(OC(F)F)cn3)c(F)cc2C)s1 [Example 38, N-[5-[[5-(difluoromethoxy)pyridin-2-yl]carbamoyl]-4-fluoro-2-methylphenyl]-2-methyl-1,3-thiazole-5-carboxamide] |  |  | <1% |  |  |  | < 100 | > 1000 | > 1000 | > 1000 | > 1000
Cc1ncc(C(=O)Nc2cc(C(=O)Nc3ccc(CC(F)(F)F)cn3)c(F)cc2Cl)s1 [Example 46, N-[2-chloro-4-fluoro-5-[[5-(2,2,2-trifluoroethyl)pyridin-2-yl]carbamoyl]phenyl]-2-methyl-1,3-thiazole-5-carboxamide] |  |  | 97% |  |  |  | < 100 | > 1000 | > 1000 | > 1000 | > 1000
